Test results taken from patent publication US6500405B1, “Use of certain amides as probes for detection of antitubulin activity and resistance monitoring” (Dow AgroSciences LLC, priority 1996, dated 2002).

Key:
[1] = system: tubulin; assay: Binding of S versus R enantiomers to tubulin; settings: S enantiomer versus corresponding R enantiomer
[2] = system: plant tubulin; settings: cited from earlier work
[3] = system: brain tubulin; settings: cited from earlier work
[4] = system: isolated bovine tubulin; assay: Binding assay, tritiated compound 1 as probe, isolated bovine tubulin; settings: 100 μM final concentration; 10 μM tubulin; 30 minutes preincubation, 120 minutes with tritiated compound 1 at 37° C.
Method: Assay mixtures contained 10 μM isolated tubulin in 1.0 M sodium glutamate, pH 6.6 containing 1 mM MgCl2, and 2.5 μDMSO (control) or 2.5 μl of test compound dissolved in DMSO in 0.5 ml polypropylene tubes. Mixtures were incubated at 37° C. for 30 minutes, then 2.5 μl of a 640 μM solution of tritium-labeled compound 1 in DMSO was added. After further incubation at 37° C. for 120 minutes, aliquots (80 μl) of the assay mixtures were applied to 2.3 cm diameter Whatman 3MM filter paper disks, which were dried for 15 seconds under warm air, immersed in 3 ml of ice-cold 10% trichloroacetic acid, and left overnight at 4° C. Disks were transferred to 5% trichloroacetic acid for 30 minutes, washed twice more in 5% trichloroacetic acid, washed for 30 minutes at 37° C. in ethanol/ether (1:1, v/v), then for 15 min at room temperature in ethanol/ether (1:1, v/v), and finally in two successive washes for 15 minutes each in ether at room temperature. The disks were dried, transferred to scintillation vials containing 10 ml of Hydrofluor™ and counted in a scintillation counter.

[5] = system: tubulin in colon cancer cell line HCT-116; assay: Whole cell binding assay, tritiated S-enantiomer of compound 2 as probe, colon cancer cell line HCT-116; settings: for Binding of radioligand (% control): HCT-116, 1 hour preincubation, 1 hour with radioligand; for Effect on binding of the radioligand (in words): HCT-116, tritiated S-enantiomer of compound 2
Method: Effect of antitubulin compounds on binding of the tritiated S-enantiomer of compound 2 to tubulin in a whole cell binding assay using the colon cancer cell line HCT-116 is shown by this example.
The colon cancer cell line HCT-116 (obtained from the American Type Culture Collection) was cultured in 75 cm^2 flasks containing McCoy's 5a Modified Medium with 10% heat-inactivated fetal bovine serum, 50 U/ml of penicillin G and 50 U/ml of streptomycin sulfate. A cell suspension was prepared by trypsinization of the culture, and adjusted to a density of 10^6 cells/ml by dilution into incomplete medium (medium lacking serum, penicillin G and streptomycin). Aliquots (150 μl) of cell suspension were added to wells of 96-well glass fiber filter plates (Millipore Multiscreen® plates, 1 μm glass fiber, Type B). Wells then received 30 μl of a solution of the test antitubulin compound in incomplete medium/DMSO mixture (8.5:1, v/v) or 30 μl of the incomplete medium/DMSO mixture alone (control). After mixing, the plates were incubated at 37° C. for 1 hour, then 25 μl of 0.8 μM tritium-labeled S-enantiomer of compound 2 was added to each well. After mixing, the plates were incubated at 37° C. for 1 hour, then binding of the radioligand to tubulin was stopped by adding 50 μl of 100 μM unlabeled compound 2. The fluid was removed from the plate by vacuum filtration through the glass fiber, then 100 μl of ice-cold 10% trichloroacetic acid was added to each well. The plates were incubated for 1 h at 4° C., then the fluid was removed by filtration. Ice-cold ethanol (250 μl) was added to each well, the plates incubated for 1 h at 4° C., then the ethanol was removed by filtration. Wells were washed 4 more times with 250 μl of ice-cold ethanol. After drying the plates at 37° C. for 20 min, the glass fiber filters were punched out of the wells into scintillation vials, 5 ml of scintillation fluid was added to each vial, and the samples were counted in a scintillation counter to determine the amount of bound radioactivity. The effects of different antitubulin compounds on binding of the radioligand are presented in Table 11 with the amounts of radioligand bound in the presence of each antitubulin compound expressed as a percentage of the amount of radioligand bound in the control.

Binding of the S enantiomer to tubulin compared with the R enantiomer [1]	melting point [°C]	SMILES	Inhibition of plant tubulin polymerization [2]	Inhibition of brain tubulin polymerization [3]	Binding (% control) [4] [% control]	Binding of radioligand (% control) ([5]; 0.1 μM)	Binding of radioligand (% control) ([5]; 1 μM)	Binding of radioligand (% control) ([5]; 10 μM)	Binding of radioligand (% control) ([5]; 100 μM)	Effect on binding of the radioligand (in words) [5]
bind more effectively to tubulin	140 to 141	CCC(C)(NC(=O)c1cc(Cl)c(N)c(C=NOC)c1)C(=O)CCl (stereo not shown) [Compound 2, 4-amino-3-chloro-5-methoxyiminomethyl-N-(3-chloro-1-ethyl-1-methyl-2-oxopropyl)benzamide]								
		COP(=S)(NC(C)C)Oc1ccc(C)cc1[N+](=O)[O-] (stereo not shown) [amiprophosmethyl]	inhibit the polymerization of plant tubulin	not brain tubulin						
		COC(=O)Nc1nc2ccc(C(=O)c3cccs3)cc2[nH]1 [Nocodazole, nocodazole]			31.3	102	99	74	44	reduced binding of the radioligand
		COc1cc([C@@H]2c3cc4c(cc3[C@H](O)[C@H]3COC(=O)[C@H]23)OCO4)cc(OC)c1OC [Podophyllotoxin, podophyllotoxin]			21.7	37	0	0	0	reduced binding of the radioligand
		CC[C@]1(O)C[C@@H]2CN(CCc3c([nH]c4ccccc34)[C@@](C(=O)OC)(c3cc4c(cc3OC)N(C)[C@H]3[C@@](O)(C(=O)OC)[C@H](OC(C)=O)[C@]5(CC)C=CCN6CC[C@]43[C@@H]65)C2)C1 [Vinblastine, vinblastine]			90.7	155	218	286	323	increased binding of the radioligand
